Data reported in US10835572B2, “Composition for external application” (ROHTO PHARMACEUTICAL CO., LTD., priority 2014, dated 2020).

Test: Discoloration on storage: rate of increase in ΔE*ab (color difference meter)
Format: physicochemical
Settings: stored 4 days at 60° C. under protection from light; FIG. 4-8
Procedure: 20 ml aliquots of the compositions of the examples and comparative examples were filled into a glass bottle followed by determination of the initial ΔE*ab(0) value with a color difference meter (Spectrophotometer Model CM-5, Konica Minolta). At this time, purified water was used for the reference color. ΔE*ab(0) values are represented by the equation indicated below and used as an indicator to represent the degree of coloring of the compositions of the examples and comparative examples. ΔE*ab={(ΔL*)^2+(Δa*)^2+(Δb*)^2}^1/2 [Equation 1]
The L* value (ΔL*) is a value relating to lightness, the a* value (Δa*) is a value relating to red/green opponent colors in both directions, and the b* value (Δb*) is a value relating to blue/yellow opponent colors in both directions. The compositions of the aforementioned examples and comparative examples were each stored (under protection from light) at 40° C., 50° C. and 60° C. and then taken out after 4 days followed by determination of the ΔE*ab(4) value with the aforementioned color difference meter.
The rate of increase in the ΔE*ab values attributable to being stored for 4 days at the aforementioned temperatures was determined using the equation indicated below. The term “(D65)” in the equation indicates the use of Illuminant D65. Rate of increase in ΔE*ab(D65)=ΔE*ab(65)(4)/[…]

O=C1O[C@H]([C@@H](O)CO)C(O)=C1O[C@H]1O[C@H](CO)[C@@H](O)[C@H](O)[C@H]1O [ascorbyl glucoside]
discoloration, rate of increase in ΔE*ab (in words): discoloration was determined to not occur
